The series concerns infarcted mouse hearts. Briefly: Mouse model of myocardial infarction (permanent coronary ligation), fluorescence imaging of heart sections. It is filed as in vivo, mice (C57/B6). Conditions: injected intravenously into the tail-vein 12-14 hours after MI, imaged 24 hours later. How it is done: To investigate the utility of the optical sensor conjugate in vivo, we determined the ability of the sensor to monitor ischemia and inflammation as a result of permanent coronary ligation in a mouse model of myocardial infarction. For all experiments, the agents (optical sensor conjugate or fluorogenic small molecule with linker) were injected intravenously into the tail-vein of the mice 12-14 hours after MI and imaged 24 hours later when neutrophil recruitment to the infarct is high.
Anesthesized mice were intubated and a thoracotomy was performed in the 4th left intercostal space to visualize the left ventricle where the left coronary artery was ligated. […]
Hearts were excised and rinsed in PBS and cut into myocardial rings of 1-mm thickness and either immediately stained with 2-3-5-triphenyl tetrazolium chloride (TTC) (Nahrendorf et al. Circulation, 113:1196-202 (2006)) to highlight the infarcted tissue or used for histological analysis. Fluorescence reflectance imaging of side-by-side myocardial rings of controls and injected hearts was performed in the GFP channel (lexc=450-480 nm with lem 500-530 nm) and Cy5 channel (lexc=620-650 nm with lem=680-710 nm) using an Olympus OV-100 system (Olympus, Center Valley, Pa.). For histology and fluorescence microscopy, the tissue was embedded in OCT medium (Sakura Finetek, Torrance, Calif.). […]

On to `CCN(CC)c1ccc2c(c1)Oc1cc(N(CC)CC)ccc1N2C(=O)CCCC(=O)O` [small molecule probe, sodium 5-(3,7-bis(diethylamino)-10H-phenoxazin-10-yl)-5-oxopentanoate], for which the “localization of fluorescence in coronal heart sections (fluorescence reflectance imaging)” value was “washed out of the infarct and into the myocardium”.

Values taken from US10357574B2, “Optical sensor conjugates for detecting reactive oxygen and/or reactive nitrogen species in vivo” (The General Hospital Corporation, priority 2010, dated 2019).
